The values below are quoted from earlier work in patent US12357645B2, “Drug combination for treatment of gastric cancer” (priority 2023, dated 2025).

For data set [1] the following is noted: cited from earlier work.
The test system of another data set is gastric cancer. The settings on record: by stimulating expression of p53 and p21 (waf1/cip1); cited from earlier work.

On to `CC(C)[C@]12O[C@H]1[C@@H]1O[C@]13[C@]1(O[C@H]1C[C@H]1C4=C(CC[C@@]13C)C(=O)OC4)[C@@H]2O` [triptolide, reference compound], for which the aqueous solubility result in data set [1] is reported as “limited aqueous solubility”. Further, the “cell growth and apoptosis” value with gastric cancer is “inhibit cell growth and induce apoptosis”.
